Data taken from US20250288553A1, “Antimicrobial Compositions and Uses for Treatment of Clostridioides difficile, Mycobacterium tuberculosis, and Enterococcus faecalis Infection” (priority 2022, published 2025).
In brackets after ≈: the same amount, converted by molar mass. Several values for one entry are separate records, joined by “and”; a condition that tells them apart may be missing. Equal values may be shown once. Read-outs that look alike come from different tables or passages of the source.

Legend:
[1] = test system: J774A.1 (murine macrophage-like) cell line; assay: Cytotoxicity assay J774A.1; assay type: cell-based
Experimental: (§1) To evaluate the selectivity of the top six compounds from the Mtb-lux activity screen (Table 2), cytotoxicity for two different mammalian cell lines was determined. The IC50 was calculated for each compound against J774A.1 and HepG2 cell lines. The selectivity index (SI) for both replicating and dormant conditions was then calculated by taking the IC50 and dividing it by the corresponding MIC (SIR=IC50/MICR, SID=IC50/MICD)^40. Consistent with the experience, the J774 macrophage cell line was more sensitive to all compounds tested. […] Based on these observations, this triacetate protected puupehenone represents a promising candidate for further optimization.
(§2) Cytotoxicity assay: Cytotoxicity was assessed using J774A.1 (murine macrophage-like) and HepG2 (human liver carcinoma) cell lines using 2-fold dilution of the compounds as described previously^42, 43. IC50 values were determined using nonlinear regression fitting of the databy GraphPad Prism. The selectivity Index (SI) was calculated as IC50/MIC.

[2] = Cytotoxicity assay J774A.1; assay type: cell-based, murine; conditions: mouse, J774A.1 macrophage-like cells; J774A.1 cells; read-out: Cytotoxicity (IC50) J774
Experimental: as §1, §2

[3] = Cytotoxicity assay HepG2; conditions: human
[4] = test system: HepG2 (human liver carcinoma) cell line; assay: Cytotoxicity assay HepG2
[5] = test system: replicating Mtb-lux (Mycobacterium tuberculosis CDC1551 with pMV306hsp+LuxG13); assay type: cell-based
[6] = test system: dormant Mtb-lux (Mycobacterium tuberculosis CDC1551 with pMV306hsp+LuxG13); assay type: cell-based; conditions: for R/D (MICR/MICD, Mtb-lux): ratio replicating MIC to dormant MIC
[7] = test system: Mycobacterium tuberculosis H37Ra ATCC 25177; assay: MIC against Mtb H37Ra, resazurin microtiter assay (REMA); assay type: cell-based; conditions: for MIC: Mycobacterium tuberculosis, 336 h
[8] = test system: Staphylococcus aureus ATCC 25923; assay: MIC against S. aureus, REMA; conditions: visual, 24 h
[9] = test system: Enterococcus faecalis ATCC 29212; assay: MIC against E. faecalis, REMA; conditions: for MIC E. faecalis: REMA, visual, 24 h
[10] = test system: Bacillus subtilis ATCC 23857; assay: MIC against B. subtilis, REMA; conditions: for MIC B. subtilis: REMA, visual, 24 h
[11] = test system: Clostridioides difficile NAP1; assay: MIC against C. difficile NAP1, modified broth microdilution; conditions: for MIC C. difficile: NAP1, modified broth microdilution, 48 h, anaerobic; for MIC: Clostridioides difficile, NAP1, 48 h, read-out: MIC C. difficile, NAP1, modified broth microdilution, 48 h, anaerobic
[12] = test system: TcdA production in C. difficile NAP1; assay: Toxin analysis: extracellular TcdA of C. difficile NAP1 at sub-MICs, western blot; assay type: cell-based, Clostridioides difficile; parameters: Concentration at which TcdA was undetectable: unit not given here; conditions: for Effect on TcdA toxin production: NAP1 challenged with 0.5×, 0.25×, 0.125× MIC, 48 h, TcdA normalized to total protein
Experimental: After a 48 h incubation of NAP1 challenged with several dilutions of each compound, extracellular toxin in spent media derived from triplicate cultures was assessed with western blots using a monoclonal antibody against TcdA. Semi-quantitative analysis of toxin levels was performed via densitometry of TcdA band intensity with respect to total protein as measured by the Bradford assay. Semi-quantitative plots are shown below each representative blot. (a) Toxin production in BHIS (NAP1) and BHIS with 5% DMSO (vehicle). (b) Toxin production from cultures challenged with sub-MICs of fidaxomicin, (c) vancomycin, and (d-j) (+)-puupehenone and selected derivatives. Data points represent the means of adjusted toxin levels derived from triplicate cultures, while error bars represent standard deviations. Statistical analysis was performed in GraphPad Prism 8 using unpaired t-tests. *P<0.05; **P<0.01.
To account for changes in biomass, a semi-quantitative analysis of TcdA production was performed by normalizing the target bands from representative western blots to the amount of total protein in each sample.
Toxin analysis. Toxin production was determined by analyzing the amount of extracellular toxin in the cultures from the ASTs described above. At 48 h, total protein of each culture was determined with the Bradford assay using bovine serum albumin (BSA) as a standard.^53 Cultures were then centrifuged at 5,000×g for 5 minutes to clear the supernatants which were separately collected and frozen at −20° C. After thawing at room temperature, cell-free supernatants were mixed 1:1 with 2× Laemmli buffer and incubated in a sand bath at 100° C. for 5 minutes. Twenty microliters of denatured samples were loaded onto 7.5% Tris-glycine gels and electrophoresed at 200 V for 1 h. After electrophoresis, samples were transferred to polyvinylidene difluoride membranes at 4° C. overnight at 30 V. Membranes were incubated in a blocking buffer (20 mM Tris-HCl, 150 mM NaCl, 0.01 mM ethylenediaminetetraacetic acid, 0.1% Tween 20, 1% BSA, [pH 7.5]) for 1 h at room temperature. TcdA was detected with a monoclonal mouse anti-TcdA antibody (PCG4.1, Novus Biologicals) and a rabbit anti-mouse antibody conjugated with alkaline phosphatase. Blots were visualized with a ChemiDoc XRS+ imaging system (Bio-Rad).
Semi-quantitative analysis of TcdA was performed using Image Lab 6.0 software (Bio-Rad). Briefly, after subtracting background noise, peaks corresponding to the target band were selected with the software's Lane Profile tool. The density of each peak generated a value (arbitrary units) that was normalized to the total protein amount of each respective sample. […] These losses of activity prevented us from performing statistical analysis from multiple experiments, as the sub-MICs were not always the same. Since there were no changes to the methodology described, several other reasons could have accounted for decreased activity, such as compound stability, freeze-thaw, and adherence to plastic. Nevertheless, the toxin results were reproducible, irrespective of the exact sub-MICs on different days.

[13] = read-out: MIC Mtb H37Ra, determined visually by REMA assay, 14-day incubation
[14] = determined visually by REMA assay, 14-day incubation, read-out: MIC Mtb H37Ra

Compound | SI (SID) J774 [1] | SI (SIR) J774 [1] | IC50 [2] [µM] | IC50 [3] [µM] | SI (SID) HepG2 [4] | SI (SIR) HepG2 [4] | MICR (Mtb-lux) [5] [µg/mL] | MICD (Mtb-lux) [6] | R/D (MICR/MICD, Mtb-lux) [6] | MIC C. difficile [11] | other results
CCC(=O)Oc1cc2c(cc1OC(=O)CC)[C@@H](OC(=O)CC)[C@@H]1[C@@]3(C)CCCC(C)(C)[C@@H]3CC[C@]1(C)O2 [Compound 21] | 26.4 | 9.4 | 26.4 | 64.2 | 64.2 | 22.9 | 2.8 | 1.0 µg/mL and 1 µg/mL | 2.8 |  | MIC [7, 13]: 12.9 µg/mL (≈ 25.1 µM); MIC Mtb H37Ra ([7]; determined visually by REMA assay, 14-day incubation): 12.85 µg/mL (≈ 25 µM)
CC1(C)CCC[C@]2(C)[C@@H]1CC[C@]1(C)Oc3ccc(O)cc3C[C@@H]21 [Compound 31, (+)-Chromazonarol] |  |  |  |  |  |  | 56.5 | 32 µg/mL | 1.8 | inactive | MIC S. aureus [8]: inactive; MIC E. faecalis [9]: inactive; MIC B. subtilis [10]: 8.6 µg/mL (≈ 27.3 µM); MIC Mtb H37Ra [7]: 31.4 µg/mL (≈ 99.9 µM)
CN[C@H](CC(C)C)C(=O)N[C@H]1C(=O)N[C@@H](CC(N)=O)C(=O)N[C@H]2C(=O)N[C@H]3C(=O)N[C@H](C(=O)N[C@H](C(=O)O)c4cc(O)cc(O)c4-c4cc3ccc4O)[C@H](O)c3ccc(c(Cl)c3)Oc3cc2cc(c3O[C@@H]2O[C@H](CO)[C@@H](O)[C@H](O)[C@H]2O[C@H]2C[C@](C)(N)[C@H](O)[C@H](C)O2)Oc2ccc(cc2Cl)[C@H]1O [vancomycin, reference compound] |  |  |  |  |  |  |  |  |  |  | Effect on TcdA toxin production [12]: reduced toxin production in a concentration-dependent manner
CC(C)C(=O)Oc1cc2c(cc1OC(=O)C(C)C)[C@@H](OC(=O)C(C)C)[C@@H]1[C@@]3(C)CCCC(C)(C)[C@@H]3CC[C@]1(C)O2 [Compound 22] |  |  |  |  |  |  | 7.6 | 88.8 µg/mL | 0.08 |  | 
CC1(C)CCC[C@]2(C)[C@H]3C=C4C=C(O)C(=O)C=C4O[C@@]3(C)CC[C@@H]12 [Compound 1, (+)-Puupehenone] | 46.4 | 7.7 | 23.2 | 70.6 | 141.2 | 23.5 | 3.0 | 0.5 µg/mL | 6.0 | 2.0 µg/mL (≈ 6.09 µM) | MIC [11]: 2 to 4 µg/mL (≈ 6.09 to 12.2 µM); Concentration at which TcdA was undetectable ([12]; NAP1, 48 h, western blot): 1; MIC [7, 14]: 32.8 µg/mL (≈ 99.9 µM)
CC1(C)CCCC2(C)C1CCC(C)(O)C2Cc1ccc(O)c(O)c1 (stereo not shown) [Compound 38] |  |  |  |  |  |  | 58.0 | 42.0 µg/mL | 1.4 | did not exhibit any activity | MIC S. aureus [8]: did not exhibit any activity; MIC E. faecalis [9]: did not exhibit any activity; MIC B. subtilis [10]: did not exhibit any activity
CO[C@@H]1c2cc(OC(=O)c3ccccc3)c(OC(=O)c3ccccc3)cc2O[C@@]2(C)CC[C@H]3C(C)(C)CCC[C@]3(C)[C@@H]12 [Compound 18] |  |  |  |  |  |  | >200 | 48.3 µg/mL |  |  | 
CCC(=O)Oc1cc2c(cc1OC(=O)CC)[C@@H](OC)[C@@H]1[C@@]3(C)CCCC(C)(C)[C@@H]3CC[C@]1(C)O2 [Compound 16] | 35.7 | 6.8 | 60.6 | > 200 | > 117.6 | > 22.5 | 8.9 | 1.7 µg/mL | 5.2 |  | MIC [7, 14]: 23.6 µg/mL (≈ 49.9 µM)
CO[C@@H]1c2cc(OC(=O)C(C)C)c(OC(=O)C(C)C)cc2O[C@@]2(C)CC[C@H]3C(C)(C)CCC[C@]3(C)[C@@H]12 [Compound 17] |  |  |  |  |  |  | 8.6 | 10.1 µg/mL | 0.9 |  | MIC [7, 14]: 25 µg/mL (≈ 49.9 µM)
CC1(C)CCCC2(C)C1CCC(C)(O)C2Cc1ccc(O)cc1O (stereo not shown) [Compound 36] |  |  |  |  |  |  |  |  |  | 8.0 µg/mL (≈ 24.1 µM) | MIC S. aureus [8]: 16.6 µg/mL (≈ 49.9 µM); MIC E. faecalis [9]: 16.2 µg/mL (≈ 48.7 µM); MIC B. subtilis [10]: 8.2 µg/mL and 8.3 µg/mL; Effect on TcdA toxin production [12]: did not appear to substantially change toxin production
CC1(C)CCC[C@]2(C)[C@@H](Cc3cc(O)ccc3O)[C@](C)(O)CC[C@@H]12 [Compound 41, (+)-Yahazunol] |  |  |  |  |  |  |  |  |  | did not inhibit | MIC S. aureus [8]: 33.2 µg/mL (≈ 99.9 µM); MIC B. subtilis [10]: 33.2 µg/mL (≈ 99.9 µM)
CC1(C)CCCC2(C)C1CCC(C)(O)C2Cc1ccc(OCc2ccccc2)cc1 (stereo not shown) [Compound 33] |  |  |  |  |  |  | 57.5 | 40.4 µg/mL | 1.4 |  | MIC Mtb H37Ra [7]: 40.6 µg/mL (≈ 99.8 µM)
CC(=O)Oc1cc2c(cc1OC(C)=O)[C@@H](OC(C)=O)[C@@H]1[C@@]3(C)CCCC(C)(C)[C@@H]3CC[C@]1(C)O2 [Compound 20, 15-α-acetoxypuupehenol diacetate] | > 142.3 | > 33.3 | > 200 | > 200 | > 142.3 | > 33.3 | 6.0 | 1.4 µg/mL | 4.3 | 2.0 µg/mL | Cytotoxicity (IC50) J774 ([1]; J774A.1 cells): no cytotoxicity; Cytotoxicity (IC50) HepG2 ([4]; HepG2 cells): no cytotoxicity; MIC [11]: 2 to 4 µg/mL; Effect on TcdA toxin production [12]: decreased the amount of toxin in a similar concentration-dependent manner; MIC [7, 13]: 11.8 µg/mL
CO[C@@H]1c2cc(OC(=O)C(C)(C)C)c(O)cc2O[C@@]2(C)CC[C@H]3C(C)(C)CCC[C@]3(C)[C@@H]12 [Compound 19, 15-α-methoxypuupehenol monopivalate] | 37.6 | 4.4 | 56.4 | > 200 | > 133.3 | > 15.7 | 12.7 | 1.5 µg/mL |  | 4.0 µg/mL (≈ 9 µM) | MIC ([9]; Enterococcus faecalis, ATCC29212, 24 h, read-out: MIC E. faecalis): 22.2 µg/mL (≈ 50 µM); MIC ([10]; Bacillus subtilis, ATCC23857, 24 h, read-out: MIC B. subtilis): 22.2 µg/mL (≈ 50 µM); MIC [11]: 2 to 4 µg/mL (≈ 4.5 to 9 µM); Effect on TcdA toxin production [12]: did not appear to substantially change toxin production; MIC [7, 13]: 44.4 µg/mL (≈ 99.9 µM)
